Experimental data as given in patent US6339042B1, “Herbicidal N-cyclohexadienyl heteroaryloxyacetamides” (American Cyanamid Co., priority 1999, dated 2002).

Tests used:
Settings in all cases: three weeks after treatment
Hordeum vulgare [1] = assay: Post-emergence herbicidal evaluation, HORVW
Protocol: Each pot is examined three weeks after treatment and phytotoxicity is assessed according to the rating system set forth below.
These acetone solutions are diluted with water and the resulting formulations applied at dosage levels equivalent of about 0.4 to 0.1 kg per hectare of test compound per pot. After spraying the plants are placed on greenhouse benches and are cared for in the usual manner, commensurate with conventional greenhouse practices.

Alopecurus myosuroides [2] = assay: Pre-emergence herbicidal evaluation, ALOMY; format: in vivo
Excerpt: (§1) The treated pots are then placed on greenhouse benches, watered and cared for in accordance with conventional greenhouse procedures.

Glycine max [3] = assay: Pre-emergence herbicidal evaluation, GLXMA; format: in vivo
Excerpt: as §1

Lolium perenne [4] = assay: Pre-emergence herbicidal evaluation, LOLPE; format: in vivo
Excerpt: as §1

Apera spica venti [5] = assay: Pre-emergence herbicidal evaluation, APESV; format: in vivo
Excerpt: as §1

Triticum aestivum [6] = assay: Pre-emergence herbicidal evaluation, TRZAW; format: in vivo
Excerpt: as §1

Oryza sativum [7] = assay: Post-emergence herbicidal evaluation, ORYSA
Oryza sativum [8] = assay: Pre-emergence herbicidal evaluation, ORYSA; format: in vivo
Excerpt: as §1

Glycine max [9] = assay: Post-emergence herbicidal evaluation, GLXMA
Setaria viridis [10] = assay: Post-emergence herbicidal evaluation, SETVI
Setaria viridis [11] = assay: Pre-emergence herbicidal evaluation, SETVI; format: in vivo
Excerpt: as §1

Triticum aestivum [12] = assay: Post-emergence herbicidal evaluation, TRZAW
Amaranthus tuberculatus [13] = assay: Pre-emergence herbicidal evaluation, AMATA; format: in vivo
Excerpt: as §1

Alopecurus myosuroides [14] = assay: Post-emergence herbicidal evaluation, ALOMY
Echinochloa crus-galli [15] = assay: Pre-emergence herbicidal evaluation, ECHCG; format: in vivo
Excerpt: as §1

Apera spica venti [16] = assay: Post-emergence herbicidal evaluation, APESV
Zea mays [17] = assay: Post-emergence herbicidal evaluation, ZEAMX
Zea mays [18] = assay: Pre-emergence herbicidal evaluation, ZEAMX; format: in vivo
Excerpt: as §1

Lolium perenne [19] = assay: Post-emergence herbicidal evaluation, LOLPE
Hordeum vulgare [20] = assay: Pre-emergence herbicidal evaluation, HORVW; format: in vivo
Excerpt: as §1

Echinochloa crus-galli [21] = assay: Post-emergence herbicidal evaluation, ECHCG
Galium aparine = assay: Post-emergence herbicidal evaluation, GALAP
Amaranthus tuberculatus [22] = assay: Post-emergence herbicidal evaluation, AMATA; format: in vivo

CCc1nnc(OCC(=O)N(C)C2=CC(C)(C)CC(C)=C2)s1 [Example 5]
8 (8 - Approaching complete kill): phytotoxicity rating ALOMY (Alopecurus myosuroides [2]; 0.200 kg/ha) | phytotoxicity rating ECHCG (Echinochloa crus-galli [15]; 0.400 kg/ha)
0 (0 - No effect): phytotoxicity rating HORVW (Hordeum vulgare [1]; 0.100 kg/ha) | phytotoxicity rating HORVW (Hordeum vulgare [1]; 0.200 kg/ha) | phytotoxicity rating HORVW (Hordeum vulgare [1]; 0.400 kg/ha) | phytotoxicity rating GLXMA (Glycine max [3]; 0.100 kg/ha) | phytotoxicity rating GLXMA (Glycine max [3]; 0.200 kg/ha) | phytotoxicity rating GLXMA (Glycine max [3]; 0.400 kg/ha) | phytotoxicity rating TRZAW (Triticum aestivum [6]; 0.100 kg/ha) | phytotoxicity rating TRZAW (Triticum aestivum [6]; 0.200 kg/ha) | phytotoxicity rating ORYSA (Oryza sativum [7]; 0.100 kg/ha) | phytotoxicity rating SETVI (Setaria viridis [10]; 0.100 kg/ha) | phytotoxicity rating SETVI (Setaria viridis [10]; 0.200 kg/ha) | phytotoxicity rating SETVI (Setaria viridis [10]; 0.400 kg/ha) | phytotoxicity rating SETVI (Setaria viridis [11]; 0.100 kg/ha) | phytotoxicity rating TRZAW (Triticum aestivum [12]; 0.100 kg/ha) | phytotoxicity rating TRZAW (Triticum aestivum [12]; 0.200 kg/ha) | phytotoxicity rating AMATA (Amaranthus tuberculatus [13]; 0.100 kg/ha) | phytotoxicity rating AMATA (Amaranthus tuberculatus [13]; 0.200 kg/ha) | phytotoxicity rating ALOMY (Alopecurus myosuroides [14]; 0.100 kg/ha) | phytotoxicity rating APESV (Apera spica venti [16]; 0.100 kg/ha) | phytotoxicity rating APESV (Apera spica venti [16]; 0.200 kg/ha) | phytotoxicity rating ZEAMX (Zea mays [17]; 0.100 kg/ha) | phytotoxicity rating ZEAMX (Zea mays [17]; 0.200 kg/ha) | phytotoxicity rating ZEAMX (Zea mays [17]; 0.400 kg/ha) | phytotoxicity rating ZEAMX (Zea mays [18]; 0.100 kg/ha) | phytotoxicity rating ZEAMX (Zea mays [18]; 0.200 kg/ha) | phytotoxicity rating ZEAMX (Zea mays [18]; 0.400 kg/ha) | phytotoxicity rating LOLPE (Lolium perenne [19]; 0.100 kg/ha) | phytotoxicity rating HORVW (Hordeum vulgare [20]; 0.100 kg/ha) | phytotoxicity rating ECHCG (Echinochloa crus-galli [21]; 0.100 kg/ha) | phytotoxicity rating ECHCG (Echinochloa crus-galli [21]; 0.200 kg/ha) | phytotoxicity rating ECHCG (Echinochloa crus-galli [21]; 0.400 kg/ha) | phytotoxicity rating GALAP (Galium aparine; 0.100 kg/ha) | phytotoxicity rating GALAP (Galium aparine; 0.200 kg/ha) | phytotoxicity rating AMATA (Amaranthus tuberculatus [22]; 0.100 kg/ha) | phytotoxicity rating AMATA (Amaranthus tuberculatus [22]; 0.200 kg/ha)
3 (3 - Moderate effect): phytotoxicity rating ALOMY (Alopecurus myosuroides [2]; 0.100 kg/ha) | phytotoxicity rating APESV (Apera spica venti [5]; 0.400 kg/ha) | phytotoxicity rating SETVI (Setaria viridis [11]; 0.200 kg/ha) | phytotoxicity rating AMATA (Amaranthus tuberculatus [13]; 0.800 kg/ha) | phytotoxicity rating HORVW (Hordeum vulgare [20]; 0.400 kg/ha) | phytotoxicity rating AMATA (Amaranthus tuberculatus [22]; 0.400 kg/ha)
6 (6 - Herbicidal effect): phytotoxicity rating ZEAMX (Zea mays [18]; 0.800 kg/ha)
9 (9 - Complete kill): phytotoxicity rating ALOMY (Alopecurus myosuroides [2]; 0.400 kg/ha) | phytotoxicity rating ALOMY (Alopecurus myosuroides [2]; 0.800 kg/ha) | phytotoxicity rating SETVI (Setaria viridis [11]; 0.800 kg/ha) | phytotoxicity rating ECHCG (Echinochloa crus-galli [15]; 0.800 kg/ha)
5 (5 - Definite injury): phytotoxicity rating LOLPE (Lolium perenne [4]; 0.100 kg/ha) | phytotoxicity rating LOLPE (Lolium perenne [4]; 0.200 kg/ha) | phytotoxicity rating LOLPE (Lolium perenne [4]; 0.400 kg/ha) | phytotoxicity rating ORYSA (Oryza sativum [8]; 0.800 kg/ha) | phytotoxicity rating GLXMA (Glycine max [9]; 0.100 kg/ha) | phytotoxicity rating GLXMA (Glycine max [9]; 0.200 kg/ha) | phytotoxicity rating GLXMA (Glycine max [9]; 0.400 kg/ha)
1 (1 - Trace effect): phytotoxicity rating GLXMA (Glycine max [3]; 0.800 kg/ha) | phytotoxicity rating TRZAW (Triticum aestivum [6]; 0.400 kg/ha) | phytotoxicity rating TRZAW (Triticum aestivum [6]; 0.800 kg/ha) | phytotoxicity rating ORYSA (Oryza sativum [7]; 0.200 kg/ha) | phytotoxicity rating ORYSA (Oryza sativum [7]; 0.400 kg/ha) | phytotoxicity rating ORYSA (Oryza sativum [8]; 0.100 kg/ha) | phytotoxicity rating TRZAW (Triticum aestivum [12]; 0.400 kg/ha) | phytotoxicity rating AMATA (Amaranthus tuberculatus [13]; 0.400 kg/ha) | phytotoxicity rating APESV (Apera spica venti [16]; 0.400 kg/ha) | phytotoxicity rating LOLPE (Lolium perenne [19]; 0.200 kg/ha)
7 (7 - Good herbicidal effect): phytotoxicity rating LOLPE (Lolium perenne [4]; 0.800 kg/ha) | phytotoxicity rating APESV (Apera spica venti [5]; 0.800 kg/ha) | phytotoxicity rating SETVI (Setaria viridis [11]; 0.400 kg/ha) | phytotoxicity rating ALOMY (Alopecurus myosuroides [14]; 0.400 kg/ha) | phytotoxicity rating ECHCG (Echinochloa crus-galli [15]; 0.200 kg/ha)
2 (2 - Slight effect): phytotoxicity rating ORYSA (Oryza sativum [8]; 0.200 kg/ha) | phytotoxicity rating ALOMY (Alopecurus myosuroides [14]; 0.200 kg/ha) | phytotoxicity rating ECHCG (Echinochloa crus-galli [15]; 0.100 kg/ha) | phytotoxicity rating HORVW (Hordeum vulgare [20]; 0.200 kg/ha)
4 (4 - Injury): phytotoxicity rating ORYSA (Oryza sativum [8]; 0.400 kg/ha) | phytotoxicity rating LOLPE (Lolium perenne [19]; 0.400 kg/ha) | phytotoxicity rating HORVW (Hordeum vulgare [20]; 0.800 kg/ha) | phytotoxicity rating GALAP (Galium aparine; 0.400 kg/ha)

CC1=CC(N(C)C(=O)COc2nc3ccccc3o2)=CC(C)(C)C1 [Example 16]
0 (0 - No effect): phytotoxicity rating HORVW (Hordeum vulgare [1]; 0.100 kg/ha) | phytotoxicity rating HORVW (Hordeum vulgare [1]; 0.200 kg/ha) | phytotoxicity rating GLXMA (Glycine max [3]; 0.100 kg/ha) | phytotoxicity rating GLXMA (Glycine max [3]; 0.200 kg/ha) | phytotoxicity rating GLXMA (Glycine max [3]; 0.400 kg/ha) | phytotoxicity rating GLXMA (Glycine max [3]; 0.800 kg/ha) | phytotoxicity rating LOLPE (Lolium perenne [4]; 0.100 kg/ha) | phytotoxicity rating LOLPE (Lolium perenne [4]; 0.200 kg/ha) | phytotoxicity rating TRZAW (Triticum aestivum [6]; 0.100 kg/ha) | phytotoxicity rating TRZAW (Triticum aestivum [6]; 0.200 kg/ha) | phytotoxicity rating TRZAW (Triticum aestivum [6]; 0.400 kg/ha) | phytotoxicity rating ORYSA (Oryza sativum [7]; 0.100 kg/ha) | phytotoxicity rating ORYSA (Oryza sativum [7]; 0.200 kg/ha) | phytotoxicity rating ORYSA (Oryza sativum [8]; 0.100 kg/ha) | phytotoxicity rating ORYSA (Oryza sativum [8]; 0.200 kg/ha) | phytotoxicity rating SETVI (Setaria viridis [10]; 0.100 kg/ha) | phytotoxicity rating SETVI (Setaria viridis [10]; 0.200 kg/ha) | phytotoxicity rating SETVI (Setaria viridis [10]; 0.400 kg/ha) | phytotoxicity rating TRZAW (Triticum aestivum [12]; 0.100 kg/ha) | phytotoxicity rating TRZAW (Triticum aestivum [12]; 0.200 kg/ha) | phytotoxicity rating TRZAW (Triticum aestivum [12]; 0.400 kg/ha) | phytotoxicity rating AMATA (Amaranthus tuberculatus [13]; 0.100 kg/ha) | phytotoxicity rating APESV (Apera spica venti [16]; 0.100 kg/ha) | phytotoxicity rating ZEAMX (Zea mays [17]; 0.100 kg/ha) | phytotoxicity rating ZEAMX (Zea mays [17]; 0.200 kg/ha) | phytotoxicity rating ZEAMX (Zea mays [17]; 0.400 kg/ha) | phytotoxicity rating ZEAMX (Zea mays [18]; 0.100 kg/ha) | phytotoxicity rating ZEAMX (Zea mays [18]; 0.200 kg/ha) | phytotoxicity rating ZEAMX (Zea mays [18]; 0.400 kg/ha) | phytotoxicity rating ZEAMX (Zea mays [18]; 0.800 kg/ha) | phytotoxicity rating HORVW (Hordeum vulgare [20]; 0.100 kg/ha) | phytotoxicity rating HORVW (Hordeum vulgare [20]; 0.200 kg/ha) | phytotoxicity rating ECHCG (Echinochloa crus-galli [21]; 0.100 kg/ha) | phytotoxicity rating ECHCG (Echinochloa crus-galli [21]; 0.200 kg/ha) | phytotoxicity rating ECHCG (Echinochloa crus-galli [21]; 0.400 kg/ha)
2 (2 - Slight effect): phytotoxicity rating HORVW (Hordeum vulgare [1]; 0.400 kg/ha) | phytotoxicity rating ORYSA (Oryza sativum [7]; 0.400 kg/ha) | phytotoxicity rating ORYSA (Oryza sativum [8]; 0.400 kg/ha) | phytotoxicity rating GLXMA (Glycine max [9]; 0.100 kg/ha) | phytotoxicity rating ALOMY (Alopecurus myosuroides [14]; 0.100 kg/ha) | phytotoxicity rating HORVW (Hordeum vulgare [20]; 0.400 kg/ha)
1 (1 - Trace effect): phytotoxicity rating TRZAW (Triticum aestivum [6]; 0.800 kg/ha)
3 (3 - Moderate effect): phytotoxicity rating LOLPE (Lolium perenne [4]; 0.400 kg/ha) | phytotoxicity rating GLXMA (Glycine max [9]; 0.200 kg/ha) | phytotoxicity rating AMATA (Amaranthus tuberculatus [13]; 0.200 kg/ha) | phytotoxicity rating AMATA (Amaranthus tuberculatus [13]; 0.400 kg/ha) | phytotoxicity rating HORVW (Hordeum vulgare [20]; 0.800 kg/ha) | phytotoxicity rating GALAP (Galium aparine; 0.100 kg/ha) | phytotoxicity rating GALAP (Galium aparine; 0.200 kg/ha) | phytotoxicity rating AMATA (Amaranthus tuberculatus [22]; 0.100 kg/ha) | phytotoxicity rating AMATA (Amaranthus tuberculatus [22]; 0.400 kg/ha)
7 (7 - Good herbicidal effect): phytotoxicity rating AMATA (Amaranthus tuberculatus [13]; 0.800 kg/ha) | phytotoxicity rating ALOMY (Alopecurus myosuroides [14]; 0.400 kg/ha) | phytotoxicity rating ECHCG (Echinochloa crus-galli [15]; 0.400 kg/ha) | phytotoxicity rating LOLPE (Lolium perenne [19]; 0.400 kg/ha)
6 (6 - Herbicidal effect): phytotoxicity rating ALOMY (Alopecurus myosuroides [2]; 0.100 kg/ha) | phytotoxicity rating ECHCG (Echinochloa crus-galli [15]; 0.200 kg/ha) | phytotoxicity rating APESV (Apera spica venti [16]; 0.200 kg/ha) | phytotoxicity rating LOLPE (Lolium perenne [19]; 0.200 kg/ha)
8 (8 - Approaching complete kill): phytotoxicity rating ALOMY (Alopecurus myosuroides [2]; 0.200 kg/ha) | phytotoxicity rating ALOMY (Alopecurus myosuroides [2]; 0.400 kg/ha) | phytotoxicity rating LOLPE (Lolium perenne [4]; 0.800 kg/ha) | phytotoxicity rating APESV (Apera spica venti [5]; 0.400 kg/ha) | phytotoxicity rating SETVI (Setaria viridis [11]; 0.200 kg/ha)
5 (5 - Definite injury): phytotoxicity rating ORYSA (Oryza sativum [8]; 0.800 kg/ha) | phytotoxicity rating SETVI (Setaria viridis [11]; 0.100 kg/ha) | phytotoxicity rating ALOMY (Alopecurus myosuroides [14]; 0.200 kg/ha) | phytotoxicity rating ECHCG (Echinochloa crus-galli [15]; 0.100 kg/ha)
4 (4 - Injury): phytotoxicity rating APESV (Apera spica venti [5]; 0.200 kg/ha) | phytotoxicity rating GLXMA (Glycine max [9]; 0.400 kg/ha) | phytotoxicity rating APESV (Apera spica venti [16]; 0.400 kg/ha) | phytotoxicity rating LOLPE (Lolium perenne [19]; 0.100 kg/ha) | phytotoxicity rating GALAP (Galium aparine; 0.400 kg/ha)
9 (9 - Complete kill): phytotoxicity rating ALOMY (Alopecurus myosuroides [2]; 0.800 kg/ha) | phytotoxicity rating APESV (Apera spica venti [5]; 0.800 kg/ha) | phytotoxicity rating SETVI (Setaria viridis [11]; 0.400 kg/ha) | phytotoxicity rating SETVI (Setaria viridis [11]; 0.800 kg/ha) | phytotoxicity rating ECHCG (Echinochloa crus-galli [15]; 0.800 kg/ha)
